What was measured:
Format in all cases: cell-based
[1] = system: primary fibroblasts (including lung, dermal), HFL-1, 3T3 and CHO cells expressing LPA1R; experiment: LPA1 migration assay (Oris cell migration); conditions: inhibition of cell migration in response to chemoattractant (LPA, serum)
Source text: Migration of primary fibroblasts (including lung, dermal), HFL-1, 3T3 and CHO cells expressing LPA1R were monitored using the Oris™ assay (Platypus Technologies, Madison, Wis.). These cells were dye (Cell Tracker Green™) loaded and serum starved for 12-24 hrs. In response to chemoattractants such as LPA and serum, the cells migrated inward in to the exclusion (detection) zone. After fixing, fluorescent cells in the detection zone were counted using a high content reader. The ability of LPA1 antagonists to inhibit cell migration is quantified by plotting cell number vs. compound concentration and curve fitting the resulting dose-response curve to a 4 parameter logistic function.

Human LPA1 [2] = biological target: T1, Human LPA1 (Homo sapiens, UniProt Q92633); experiment: Beta-Arrestin based assay for human LPA1R antagonists (PathHunter); conditions: CHO cells expressing ProLink tagged human LPA1R; antagonist mode, 0.5 micromolar LPA
T1 sequence (Q92633 whole entry): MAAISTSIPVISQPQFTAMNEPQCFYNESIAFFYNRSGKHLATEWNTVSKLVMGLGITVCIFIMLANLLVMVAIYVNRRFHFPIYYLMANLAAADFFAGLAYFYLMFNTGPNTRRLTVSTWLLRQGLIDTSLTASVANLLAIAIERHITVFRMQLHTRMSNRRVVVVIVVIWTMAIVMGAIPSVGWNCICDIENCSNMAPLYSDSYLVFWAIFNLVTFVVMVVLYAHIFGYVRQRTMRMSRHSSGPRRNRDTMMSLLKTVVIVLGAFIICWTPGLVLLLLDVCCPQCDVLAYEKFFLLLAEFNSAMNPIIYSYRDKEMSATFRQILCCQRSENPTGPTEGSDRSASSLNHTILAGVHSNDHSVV
Experimental: Beta-Arrestin Based Assays for Human LPA1R Antagonists and Agonists
A CHO cell line stably expressing the ProLink™ tagged human LPA1R was obtained from DiscoverX Inc, Fremont, Calif. In this system, β-Arrestin was fused to an N-terminal deletion mutant of β-galactosidase (termed the enzyme acceptor or EA), the human LPA1R was fused to a smaller (42 amino acids) weakly complementing fragment termed ProLink™. […] Cell handling and assays were performed according to protocols specified in the PathHunter® assays kits (DiscoverX, Fremont, Calif.). Assays were performed in quadruplicate in white 384 well plates. End point luminescence data were plotted and fit to a 4 parameter logistic function to obtain IC50 values. For antagonist assays, an […] concentration of agonist (LPA) equal to 0.5 micromolar was used.

Human LPA1 [3] = biological target: T1, Human LPA1; experiment: LPA1 calcium flux assay; set-up: the full-length cDNA for human LPA1 is obtained by PCR of the reverse transcription reaction; expressed in transfected cells; conditions: human LPA1 expressing CHO cells, stimulated with 10 nM LPA; read-out: Ca Flux LPA1 IC50
Experimental: Establishment of a CHO Cell Line Stably Expressing Human LPA1
A 1.1 kb cDNA encoding the human LPA1 receptor is cloned from human lung. Human lung RNA (Clontech Laboratories, Inc. USA) is reverse transcribed using the RETROscript kit (Ambion, Inc.) and the full-length cDNA for human LPA1 is obtained by PCR of the reverse transcription reaction. The nucleotide sequence of the cloned human LPA1 is determined by sequencing and is confirmed to be identical to the published human LPA1 sequence (An et al. Biochem. Biophys. Res. Commun. 231:619 (1997). The cDNA is cloned into the pCDNA5 pcDNA5/FRT expression plasmid and is transfected in CHO cells using lipofectamine 2000 (Invitrogen Corp., USA). Clones stably expressing human LPA1 are selected using hygromycin and identified as cells that show Ca-influx in response to LPA.
LPA1 and LPA3 Calcium Flux Assays
Human LPA1 or LPA3 expressing CHO cells were seeded at 20,000-45,000 cells per well in a 96-well poly-D-lysine coated plate one or two days before the assay. Prior to the assay, the cells were washed once with PBS and then cultured in serum-free media overnight. On the day of the assay, a calcium indicator dye (Calcium 4, Molecular Devices) in assay buffer (HBSS with Ca^2+ and Mg^2+ and containing 20 mM Hepes and 0.3% fatty-acid free human serum albumin) was added to each well and incubation continued for 1 hour at 37° C. 10 μl of test compounds in 2.5% DMSO were added to the cells and incubation continued at room temperature for 30 minutes. Cells were then stimulated by the addition of 10 nM LPA and intracellular Ca^2+ measured using the Flexstation 3 (Molecular Devices). IC50, were determined using Graphpad prism analysis of drug titration curves.

SMILES | EC50 (Human LPA1 [2]) | IC50 (Human LPA1 [3]) | EC50 [1]
C[C@@H](OC(=O)Nc1c(-c2ccc(-c3ccc(C4(C(=O)O)CC4)cc3)cc2)nc2cccnn12)c1ccccc1 [IT041] | > 500 nM | 50 to 500 nM | > 500 nM
C[C@@H](OC(=O)Nc1c(-c2ccc(-c3ccc(C4(C(=O)O)CC4)cc3)cc2)nc2ncccn12)c1ccccc1 [IT043] | < 50 nM | 50 to 500 nM | 50 to 500 nM
Cc1noc(C#Cc2cc3sc(C4(C(=O)O)CC4)cc3s2)c1NC(=O)O[C@H](C)c1ccccc1Cl [IT047] | < 50 nM | 50 to 500 nM | < 50 nM
Cc1noc(C#Cc2cc3sc(C4(C(=O)O)CC4)cc3s2)c1NC(=O)OCc1ccccc1 [IT048] | < 50 nM | < 50 nM | 50 to 500 nM
C[C@@H](OC(=O)Nc1c(-c2cc(F)c(-c3ccc(C4(C(=O)O)CC4)cc3)cc2F)nn2ncccc12)c1ccccc1 [IT061] | < 50 nM | < 50 nM | 50 to 500 nM
C[C@@H](OC(=O)Nc1c(C#Cc2ccc3cc(C4(C(=O)O)CC4)ccc3c2)nnn1C)c1ccccc1 [IT064] | < 50 nM | < 50 nM | 50 to 500 nM
C[C@@H](OC(=O)Nc1c(C2CCC(c3ccc(C4(C(=O)O)CC4)cc3)CC2)cnn1C)c1ccccc1 (stereo partly drawn) [IT066] | 50 to 500 nM | 50 to 500 nM | > 500 nM
CCn1ncc(C#Cc2cc3sc(C4(C(=O)O)CC4)cc3s2)c1NC(=O)O[C@H](C)c1ccccc1 [IT070] | < 50 nM | < 50 nM | < 50 nM
C[C@@H](OC(=O)Nc1c(C#Cc2cc3sc(C4(C(=O)O)CC4)cc3s2)nn2ccccc12)c1ccccc1 [IT073] | 50 to 500 nM | < 50 nM | 50 to 500 nM

Now from value to compound, other results behind:

EC50 (Human LPA1 [2]) | IC50 (Human LPA1 [3]) | SMILES | EC50 [1]
< 50 nM | > 500 nM | Cc1nsc(-c2ccc(-c3cc4sc(C5(C(=O)O)CC5)cc4s3)cc2)c1NC(=O)O[C@H](C)c1ccccc1 [IT046] | 50 to 500 nM
< 50 nM | 50 to 500 nM | C[C@@H](OC(=O)Nc1c(-c2ccc(-c3cc4sc(C5(C(=O)O)CC5)cc4s3)cc2)nnn1C)c1ccccc1 [IT050] | 50 to 500 nM
50 to 500 nM | 50 to 500 nM | Cc1nnn(-c2ccc(-c3cc4sc(C5(C(=O)O)CC5)cc4s3)cc2)c1NC(=O)O[C@H](C)c1ccccc1 [IT051] | 50 to 500 nM
< 50 nM | 50 to 500 nM | C[C@@H](OC(=O)Nc1c(-c2ccc(-c3cc4sc(C5(C(=O)O)CC5)cc4s3)cc2)cnn1C)c1ccccc1 [IT056] | 50 to 500 nM
50 to 500 nM | 50 to 500 nM | Cc1nnn(-c2cc(F)c(-c3cc4sc(C5(C(=O)O)CC5)cc4s3)cc2F)c1NC(=O)O[C@H](C)c1ccccc1 [IT067] | > 500 nM
< 50 nM | < 50 nM | C[C@@H](OC(=O)Nc1c(C#Cc2cc3sc(C4(C(=O)O)CC4)cc3s2)nnn1C)c1ccccc1 [IT069] | 50 to 500 nM
< 50 nM | 50 to 500 nM | C[C@@H](OC(=O)Nc1c(-c2cc(F)c(-c3cc4sc(C5(C(=O)O)CC5)cc4s3)cc2F)nnn1C)c1ccccc1 [IT071] | 50 to 500 nM
50 to 500 nM | > 500 nM | C[C@@H](OC(=O)Nc1c(CCc2cc3sc(C4(C(=O)O)CC4)cc3s2)cnn1C)c1ccccc1 [IT099] | > 500 nM
